From article PMC9898036, “VIP152 is a selective CDK9 inhibitor with pre-clinical in vitro and in vivo efficacy in chronic lymphocytic leukemia” (Leukemia, 2022)

Tests used:
Experiment in all cases: DiscoverX KINOMEscan kinase profiling (468 assays)
Format in all cases: binding
human kinome [1] = target: human kinome (Homo sapiens, UniProt P35590); details: kinase TIE1 (Entrez TIE1); compound concentration 1000 nM; read-out: Percent Control
In short: (§1)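 DNA-tagged kinases competed for immobilized biotinylated ligands on streptavidin magnetic beads, with bound kinase quantified by qPCR. VIP152 in DMSO was tested against a DMSO control.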

human kinome [2] = target: human kinome (Homo sapiens, UniProt Q15831); details: LKB1 (Entrez STK11); 100 nM; read-out: Percent Control
In short: as §1

human kinome [3] = target: human kinome (Homo sapiens, UniProt Q52WX2); details: kinase SBK1 (Entrez SBK1); compound concentration 1000 nM; read-out: Percent Control
In short: as §1

human kinome [4] = target: human kinome (Homo sapiens, UniProt P51813); details: BMX; 100 nM; read-out: Percent Control
In short: as §1

human kinome [5] = target: human kinome (Homo sapiens, UniProt Q5S007, G2019S); details: LRRK2(G2019S); 100 nM; read-out: Percent Control
In short: as §1

human kinome [6] = target: human kinome (Homo sapiens, UniProt P54646); details: AMPK-alpha2 (Entrez PRKAA2); 100 nM; read-out: Percent Control
In short: as §1

human kinome [7] = target: human kinome (Homo sapiens, UniProt Q9Y2H9); details: MAST1; 100 nM; read-out: Percent Control
In short: as §1

human kinome [8] = target: human kinome (Homo sapiens, UniProt Q13163); details: MEK5 (Entrez MAP2K5); 100 nM; read-out: Percent Control
In short: as §1

human kinome [9] = target: human kinome (Homo sapiens, UniProt P78362); details: kinase SRPK2 (Entrez SRPK2); compound concentration 1000 nM; read-out: Percent Control
In short: as §1

human kinome [10] = target: human kinome (Homo sapiens, UniProt Q13177); details: read-out: Percent Control
Chain of human kinome (Homo sapiens, UniProt Q13177) (Q13177 whole entry): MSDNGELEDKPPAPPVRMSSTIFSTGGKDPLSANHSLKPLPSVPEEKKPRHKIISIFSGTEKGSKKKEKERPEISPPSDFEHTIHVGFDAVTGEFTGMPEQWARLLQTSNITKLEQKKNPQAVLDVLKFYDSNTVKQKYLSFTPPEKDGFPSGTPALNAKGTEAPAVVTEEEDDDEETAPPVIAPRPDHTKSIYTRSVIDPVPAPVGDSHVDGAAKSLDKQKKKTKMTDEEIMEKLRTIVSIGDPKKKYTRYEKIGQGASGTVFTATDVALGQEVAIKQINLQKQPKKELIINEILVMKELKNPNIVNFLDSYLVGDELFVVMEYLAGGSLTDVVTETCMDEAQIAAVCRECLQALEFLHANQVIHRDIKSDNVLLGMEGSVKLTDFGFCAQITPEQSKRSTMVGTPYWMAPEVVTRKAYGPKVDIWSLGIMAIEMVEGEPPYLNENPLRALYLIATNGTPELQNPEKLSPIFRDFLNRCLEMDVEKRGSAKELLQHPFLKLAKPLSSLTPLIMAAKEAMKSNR
In short: as §1

human kinome [11] = target: human kinome (Homo sapiens, UniProt Q6XUX3); details: kinase RIPK5 (Entrez DSTYK); compound concentration 1000 nM; read-out: Percent Control
In short: as §1

human kinome [12] = target: human kinome (Homo sapiens, UniProt Q96RR4); details: CAMKK2; 100 nM; read-out: Percent Control
In short: as §1

human kinome [13] = target: human kinome (Homo sapiens, UniProt P00533, L858R/T790M); details: EGFR(L858R,T790M); 100 nM; read-out: Percent Control
In short: as §1

human kinome [14] = target: human kinome (Homo sapiens, UniProt Q13233); details: MAP3K1; 100 nM; read-out: Percent Control
In short: as §1

human kinome [15] = target: human kinome (Homo sapiens, UniProt Q92772); details: CDKL2; 100 nM; read-out: Percent Control
In short: as §1

human kinome [16] = target: human kinome (Homo sapiens, UniProt O60331); details: read-out: Percent Control
Chain of human kinome (Homo sapiens, UniProt O60331) (O60331 whole entry): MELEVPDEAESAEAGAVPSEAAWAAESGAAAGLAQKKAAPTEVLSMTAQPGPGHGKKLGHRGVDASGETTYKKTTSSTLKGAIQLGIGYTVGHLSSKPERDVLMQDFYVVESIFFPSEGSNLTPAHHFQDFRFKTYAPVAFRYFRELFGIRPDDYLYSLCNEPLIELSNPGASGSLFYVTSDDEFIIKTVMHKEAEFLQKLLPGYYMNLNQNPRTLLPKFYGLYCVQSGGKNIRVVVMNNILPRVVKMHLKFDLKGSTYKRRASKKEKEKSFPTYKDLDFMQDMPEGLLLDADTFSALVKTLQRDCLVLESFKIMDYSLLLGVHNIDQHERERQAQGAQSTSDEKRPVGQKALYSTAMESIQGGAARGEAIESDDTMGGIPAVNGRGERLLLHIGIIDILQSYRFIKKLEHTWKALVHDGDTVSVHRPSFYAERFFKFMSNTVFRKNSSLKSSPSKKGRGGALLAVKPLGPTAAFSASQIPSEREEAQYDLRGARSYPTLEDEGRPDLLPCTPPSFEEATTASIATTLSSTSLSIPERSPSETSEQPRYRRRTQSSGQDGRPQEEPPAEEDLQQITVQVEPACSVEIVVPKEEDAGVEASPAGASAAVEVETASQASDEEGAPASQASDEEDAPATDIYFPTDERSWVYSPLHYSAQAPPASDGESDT
In short: as §1

human kinome [17] = target: human kinome (Homo sapiens, UniProt P33981); details: kinase TTK (Entrez TTK); compound concentration 1000 nM; read-out: Percent Control
In short: as §1

human kinome [18] = target: human kinome (Homo sapiens, UniProt Q9Y2H1); details: read-out: Percent Control
Chain of human kinome (Homo sapiens, UniProt Q9Y2H1) (Q9Y2H1 whole entry): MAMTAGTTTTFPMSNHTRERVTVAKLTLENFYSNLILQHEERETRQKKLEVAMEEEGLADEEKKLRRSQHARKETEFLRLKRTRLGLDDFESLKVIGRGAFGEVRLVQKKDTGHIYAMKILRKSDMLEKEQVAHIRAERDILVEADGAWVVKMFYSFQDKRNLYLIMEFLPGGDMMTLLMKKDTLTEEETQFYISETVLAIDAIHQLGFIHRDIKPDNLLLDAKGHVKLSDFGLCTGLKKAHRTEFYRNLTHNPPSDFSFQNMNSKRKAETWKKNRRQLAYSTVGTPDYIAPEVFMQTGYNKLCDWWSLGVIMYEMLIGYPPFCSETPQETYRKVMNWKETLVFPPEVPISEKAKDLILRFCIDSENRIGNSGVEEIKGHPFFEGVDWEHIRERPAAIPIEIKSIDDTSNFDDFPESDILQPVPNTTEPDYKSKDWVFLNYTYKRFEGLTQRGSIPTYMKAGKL
In short: as §1

human kinome [19] = target: human kinome (Homo sapiens, UniProt Q9HBH9); details: MKNK2; 100 nM; read-out: Percent Control
In short: as §1

human kinome [20] = target: human kinome (Homo sapiens, UniProt Q13131); details: AMPK-alpha1 (Entrez PRKAA1); 100 nM; read-out: Percent Control
In short: as §1

human kinome [21] = target: human kinome (Homo sapiens, UniProt Q14289); details: read-out: Percent Control
Chain of human kinome (Homo sapiens, UniProt Q14289) (Q14289 whole entry): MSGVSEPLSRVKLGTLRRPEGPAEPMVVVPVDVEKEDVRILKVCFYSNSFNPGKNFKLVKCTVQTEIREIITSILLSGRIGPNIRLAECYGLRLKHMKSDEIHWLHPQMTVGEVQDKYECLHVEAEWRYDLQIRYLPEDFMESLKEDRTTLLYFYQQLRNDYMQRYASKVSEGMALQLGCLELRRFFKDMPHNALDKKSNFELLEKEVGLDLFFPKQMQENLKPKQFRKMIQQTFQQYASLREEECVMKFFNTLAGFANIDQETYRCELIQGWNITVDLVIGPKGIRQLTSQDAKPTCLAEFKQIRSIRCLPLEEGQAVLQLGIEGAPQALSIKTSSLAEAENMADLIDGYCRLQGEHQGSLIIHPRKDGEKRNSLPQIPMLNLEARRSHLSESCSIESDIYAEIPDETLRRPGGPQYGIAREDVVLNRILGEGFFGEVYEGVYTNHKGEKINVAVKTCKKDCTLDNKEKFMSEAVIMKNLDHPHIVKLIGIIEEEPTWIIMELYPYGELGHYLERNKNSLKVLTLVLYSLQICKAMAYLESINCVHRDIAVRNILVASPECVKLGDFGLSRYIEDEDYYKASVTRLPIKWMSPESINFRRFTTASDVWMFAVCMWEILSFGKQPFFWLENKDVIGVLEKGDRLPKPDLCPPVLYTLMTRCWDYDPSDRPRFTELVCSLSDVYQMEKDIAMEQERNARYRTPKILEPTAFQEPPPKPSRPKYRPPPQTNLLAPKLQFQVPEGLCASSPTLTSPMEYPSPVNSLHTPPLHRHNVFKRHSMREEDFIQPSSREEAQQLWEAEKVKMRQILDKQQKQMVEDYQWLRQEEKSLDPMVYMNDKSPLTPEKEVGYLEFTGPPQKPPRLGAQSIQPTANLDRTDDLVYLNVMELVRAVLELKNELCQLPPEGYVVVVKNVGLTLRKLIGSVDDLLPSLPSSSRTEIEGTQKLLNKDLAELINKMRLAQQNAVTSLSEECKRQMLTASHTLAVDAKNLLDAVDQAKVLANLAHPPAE
In short: as §1

human kinome [22] = target: human kinome (Homo sapiens, UniProt Q13873); details: BMPR2; 100 nM; read-out: Percent Control
In short: as §1

human kinome [23] = target: human kinome (Homo sapiens, UniProt P53355); details: DAPK1; 100 nM; read-out: Percent Control
In short: as §1

human kinome [24] = target: human kinome (Homo sapiens, UniProt P42685); details: FRK; 100 nM; read-out: Percent Control
In short: as §1

human kinome [25] = target: human kinome (Homo sapiens, UniProt Q05397); details: FAK (Entrez PTK2); 100 nM; read-out: Percent Control
In short: as §1

human kinome [26] = target: human kinome (Homo sapiens, UniProt Q96J92); details: kinase WNK4 (Entrez WNK4); compound concentration 1000 nM; read-out: Percent Control
In short: as §1

human kinome [27] = target: human kinome (Homo sapiens, UniProt P15056, V600E); details: BRAF(V600E); 100 nM; read-out: Percent Control
In short: as §1

human kinome [28] = target: human kinome (Homo sapiens, UniProt Q96Q40); details: read-out: Percent Control
Chain of human kinome (Homo sapiens, UniProt Q96Q40) (Q96Q40 whole entry): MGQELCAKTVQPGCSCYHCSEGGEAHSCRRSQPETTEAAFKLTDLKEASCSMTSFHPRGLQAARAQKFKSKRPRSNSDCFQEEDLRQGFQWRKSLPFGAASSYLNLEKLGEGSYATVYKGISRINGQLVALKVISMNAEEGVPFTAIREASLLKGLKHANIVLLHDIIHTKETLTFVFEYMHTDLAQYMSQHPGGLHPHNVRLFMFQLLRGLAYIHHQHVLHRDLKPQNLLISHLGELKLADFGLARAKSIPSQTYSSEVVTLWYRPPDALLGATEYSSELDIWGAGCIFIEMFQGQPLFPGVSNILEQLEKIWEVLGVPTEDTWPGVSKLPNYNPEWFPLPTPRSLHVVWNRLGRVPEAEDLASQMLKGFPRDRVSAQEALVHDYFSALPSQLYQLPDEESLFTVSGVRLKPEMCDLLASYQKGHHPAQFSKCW
In short: as §1

human kinome [29] = target: human kinome (Homo sapiens, UniProt O00750); details: read-out: Percent Control
Chain of human kinome (Homo sapiens, UniProt O00750) (O00750 whole entry): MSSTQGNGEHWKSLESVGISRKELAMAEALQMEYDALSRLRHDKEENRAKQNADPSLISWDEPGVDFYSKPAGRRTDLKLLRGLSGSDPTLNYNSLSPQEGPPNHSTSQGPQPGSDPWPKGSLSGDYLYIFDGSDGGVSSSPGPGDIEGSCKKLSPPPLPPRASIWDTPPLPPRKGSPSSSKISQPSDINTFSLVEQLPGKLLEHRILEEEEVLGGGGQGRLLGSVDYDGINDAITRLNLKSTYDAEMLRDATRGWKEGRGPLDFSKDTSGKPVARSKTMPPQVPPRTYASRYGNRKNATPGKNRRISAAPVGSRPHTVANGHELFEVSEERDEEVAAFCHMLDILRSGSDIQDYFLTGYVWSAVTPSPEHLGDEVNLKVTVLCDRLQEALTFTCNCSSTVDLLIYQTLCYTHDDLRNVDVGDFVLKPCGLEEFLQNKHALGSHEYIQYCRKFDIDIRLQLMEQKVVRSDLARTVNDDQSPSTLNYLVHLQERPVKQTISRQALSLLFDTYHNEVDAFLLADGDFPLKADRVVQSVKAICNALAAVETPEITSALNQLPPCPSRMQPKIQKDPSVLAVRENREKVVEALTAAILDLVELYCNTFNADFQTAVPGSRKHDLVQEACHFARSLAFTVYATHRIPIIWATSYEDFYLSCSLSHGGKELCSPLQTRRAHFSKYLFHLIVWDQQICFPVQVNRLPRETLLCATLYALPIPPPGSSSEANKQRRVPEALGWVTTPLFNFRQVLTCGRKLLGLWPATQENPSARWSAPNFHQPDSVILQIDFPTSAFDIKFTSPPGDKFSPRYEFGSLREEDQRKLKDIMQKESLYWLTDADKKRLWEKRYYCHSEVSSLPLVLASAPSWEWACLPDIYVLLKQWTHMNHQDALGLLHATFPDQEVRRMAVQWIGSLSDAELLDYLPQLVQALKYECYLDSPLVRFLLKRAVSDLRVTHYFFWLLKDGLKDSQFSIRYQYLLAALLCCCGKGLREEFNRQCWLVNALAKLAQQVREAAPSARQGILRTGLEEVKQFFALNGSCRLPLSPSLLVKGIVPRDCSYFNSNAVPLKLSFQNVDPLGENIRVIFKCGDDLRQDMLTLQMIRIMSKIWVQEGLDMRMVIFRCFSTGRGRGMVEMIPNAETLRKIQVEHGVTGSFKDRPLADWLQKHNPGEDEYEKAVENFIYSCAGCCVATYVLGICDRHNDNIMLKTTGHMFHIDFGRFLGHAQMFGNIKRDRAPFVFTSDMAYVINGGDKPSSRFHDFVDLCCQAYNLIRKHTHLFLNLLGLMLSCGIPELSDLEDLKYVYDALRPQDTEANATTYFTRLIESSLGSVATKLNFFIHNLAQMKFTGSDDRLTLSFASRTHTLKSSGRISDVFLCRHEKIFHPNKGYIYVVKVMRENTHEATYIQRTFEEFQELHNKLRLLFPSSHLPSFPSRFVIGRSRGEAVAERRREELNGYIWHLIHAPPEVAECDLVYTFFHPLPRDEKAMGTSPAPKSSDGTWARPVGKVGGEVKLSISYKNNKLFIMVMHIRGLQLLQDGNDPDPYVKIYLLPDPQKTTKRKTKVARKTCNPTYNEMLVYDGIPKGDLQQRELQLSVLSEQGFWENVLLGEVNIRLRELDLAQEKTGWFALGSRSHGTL
In short: as §1

## COc1cc(F)ccc1-c1cc(Nc2cc(CS(C)(=N)=O)ccn2)ncc1F (centres unmarked) [VIP152]
Human kinome [1]
  remaining binding at 1 µM: 76%
Human kinome [2]
  remaining binding at 0.1 µM: 100%
Human kinome [3]
  remaining binding at 1 µM: 100%
Human kinome [4]
  remaining binding at 0.1 µM: 100%
Human kinome [5]
  remaining binding at 0.1 µM: 100%
Human kinome [6]
  remaining binding at 0.1 µM: 100%
Human kinome [7]
  remaining binding at 0.1 µM: 94%
Human kinome [8]
  remaining binding at 0.1 µM: 100%
Human kinome [9]
  remaining binding at 1 µM: 89%
Human kinome [10]; PAK2, 100 nM
  remaining binding at 0.1 µM: 81%
Human kinome [10]; kinase PAK2 (Entrez PAK2), compound concentration 1000 nM
  remaining binding at 1 µM: 100%
Human kinome [11]
  remaining binding at 1 µM: 42%
Human kinome [12]
  remaining binding at 0.1 µM: 92%
Human kinome [13]
  remaining binding at 0.1 µM: 93%
Human kinome [14]
  remaining binding at 0.1 µM: 100%
Human kinome [15]
  remaining binding at 0.1 µM: 100%
Human kinome [16]; PIP5K1C, 100 nM
  remaining binding at 0.1 µM: 60%
Human kinome [16]; kinase PIP5K1C (Entrez PIP5K1C), compound concentration 1000 nM
  remaining binding at 1 µM: 92%
Human kinome [17]
  remaining binding at 1 µM: 68%
Human kinome [18]; NDR2 (Entrez STK38L), 100 nM
  remaining binding at 0.1 µM: 100%
Human kinome [18]; kinase NDR2 (Entrez STK38L), compound concentration 1000 nM
  remaining binding at 1 µM: 100%
Human kinome [19]
  remaining binding at 0.1 µM: 95%
Human kinome [20]
  remaining binding at 0.1 µM: 89%
Human kinome [21]; PYK2 (Entrez PTK2B), 100 nM
  remaining binding at 0.1 µM: 100%
Human kinome [21]; kinase PYK2 (Entrez PTK2B), compound concentration 1000 nM
  remaining binding at 1 µM: 90%
Human kinome [22]
  remaining binding at 0.1 µM: 99%
Human kinome [23]
  remaining binding at 0.1 µM: 100%
Human kinome [24]
  remaining binding at 0.1 µM: 100%
Human kinome [25]
  remaining binding at 0.1 µM: 100%
Human kinome [26]
  remaining binding at 1 µM: 80%
Human kinome [27]
  remaining binding at 0.1 µM: 100%
Human kinome [28]; PFTAIRE2 (Entrez CDK15), 100 nM
  remaining binding at 0.1 µM: 100%
Human kinome [28]; kinase PFTAIRE2 (Entrez CDK15), compound concentration 1000 nM
  remaining binding at 1 µM: 70%
Human kinome [29]; PIK3C2B, 100 nM
  remaining binding at 0.1 µM: 100%
Human kinome [29]; kinase PIK3C2B (Entrez PIK3C2B), compound concentration 1000 nM
  remaining binding at 1 µM: 90%
